Measured values reported in patent US20150299648A1, “IMPROVED CULTIVATION MEDIA AND PROCESS FOR IMPROVED PROTEIN PRODUCTION BY PICHIA STRAINS” (priority 2012, published 2015).
Entries after “also recorded” stand apart in the source; their conditions may differ.

Columns and labels:
[1] = test system: P. pastoris YGLY21058 strain producing glycosylated insulin precursor (GIP); experiment: Screening of sugars and sugar alcohols as osmoprotectants in fed-batch cultivation; assay type: cell-based, Pichia pastoris
Description: The P. pastoris YGLY21058 strain was cultivated in 1 L glass bioreactors (DASGIP, Germany). For fermentation in 1 L bioreactor, a vial (1 mL) of RCB (Research Cell Bank) was inoculated into 200 mL of Seed medium in 1 L-baffled flask. The culture incubated at 24° C., while shaking on an orbital shaker at 180 rpm for 48±4 h. The bioreactor was inoculated with a 10% volumetric ratio of seed to initial BSGY medium. Cultivation conditions were following: temperature set at 24±0.5° C., pH controlled at 6.5±0.1 with 30% ammonium hydroxide, dissolved oxygen was maintained at 20% of saturation by cascading agitation rate on the addition of pure oxygen to the fixed airflow rate of 0.7 vvm. After depletion of the initial glycerol (4%), a 50% glycerol solution containing 12.5 mL/L of PTM1 salts (6.5 g FeSO4.7H2O, 2.0 g ZnCl2, 0.6 g CuSO4.5H2O, 3.0 g MnSO4.7H2O, 0.5 g CoCl2.6H2O, 0.2 g NaMoO4.2H2O, 0.2 g biotin, 80 mg NaI, 20 mg H3BO4 per L) was fed constantly at an initial rate of 0.08 h^−1 for 8 h. Induction was initiated after a 30 min starvation phase when methanol was fed. Methanol was fed constantly starting at 1.33 g/L/h under methanol limited condition. Agitation speed was changed from cascade mode with agitation speed and pure oxygen.
For comparisons, each sugar or sugar alcohol was added at 50 g/L in initial batch medium of BSGY. In case of control without sugar supplementation (BSGY medium only), glycosylated insulin precursor (GIP) was detectable at 58 h of induction, but not detected at 80 h of induction due to most likely proteolytic degradation caused by heavy cell lysis (Lanes 1 and 2 of FIG. 2 A).

[2] = test system: P. pastoris YGLY 21058 strain; experiment: Fermentability of sorbitol and maltitol determined by HPLC; assay type: cell-based, Pichia pastoris; conditions: BSGY; maltitol 50 g/L; methanol induction phase
Description: The P. pastoris YGLY 21058 strain was cultivated in 1 L bioreactor and 50 g/L of maltitol was mixed in BSGY medium. The samples were taken at the beginning of fermentation, at the end of glycerol fed-batch before adding maltitol, and two different time-points in methanol induction phase, as shown in FIG. 3. The supernatant was separated by the centrifugation at 13,000 rpm for 1 minutes using micro-centrifuge. The samples properly diluted with distilled water were filtered using 0.2 μm-filter and the residual concentrations of sorbitol and maltitol were determined by HPLC using AMINEX HPX-87H column. The residence times (RTs) for sorbitol and maltitol were 11.5 and 9.3 min respectively. The data were shown in FIG. 3 as two independent runs of cultivation.

SMILES: OC[C@@H](O)[C@@H](O[C@H]1O[C@H](CO)[C@@H](O)[C@H](O)[C@H]1O)[C@H](O)[C@@H](O)CO [Maltitol, 4-O-α-glucopyranosyl-D-sorbitol]
- Intact insulin precursor produced ([1]; 2% maltitol, 83 h of post-induction): intact protein was produced
- Index of cell lysis (double stranded DNA released into culture medium) ([1]; 50 g/L in initial batch BSGY, 80 h of induction): < 1 mg DNA/L
- Intact GIP molecule after 80 h-induction (SDS-PAGE) ([1]; 50 g/L in initial batch medium of BSGY): intact GIP molecule was maintained
- Intact GIP produced ([1]; 80 h of induction): 100 mg/L
- Robustness of Pichia production strains ([1]; methanol induction phase of cultivation): significantly improved the robustness
- Volumetric productivity of GIP/insulin relative to control ([1]; vs control without supplementation): 2 fold
- Consumption / fermentability in fed-batch fermentation (residual concentration by HPLC) [2]: not consumed; also recorded: non-fermentable
